Measured values published in US8258114B2, “Modulation of glucose-6-phosphatase translocase expression” (Isis Pharmaceuticals, Inc., priority 2004, dated 2012).
Oligonucleotides are written 5' to 3', each unit as a sugar letter and its base; * is a phosphorothioate linkage, no mark a phosphodiester; rarer units and linkages stand in square brackets, end groups in braces. Plain capitals give the bases only. e = 2'-O-(2-methoxyethyl) (MOE); [5mC] = 5-methylcytosine; d = 2'-deoxy (DNA)

Test system: human glucose-6-phosphatase translocase mRNA
Assay: Antisense inhibition of human glucose-6-phosphatase translocase mRNA in HepG2 cells (Table 11)
Assay type: cell-based
Design: concentration or dose not given beside the values
Conditions: LIPOFECTIN, mRNA by real-time PCR
Method: The human hepatoblastoma cell line HepG2 was obtained from the American Type Culture Collection (Manassas, Va.). HepG2 cells were routinely cultured in Eagle's MEM supplemented with 10% fetal bovine serum, 1 mM non-essential amino acids, and 1 mM sodium pyruvate (Invitrogen Life Technologies, Carlsbad, Calif.). Cells were routinely passaged by trypsinization and dilution when they reached approximately 90% confluence. Multiwell culture plates are prepared for cell culture by coating with a 1:100 dilution of type 1 rat tail collagen (BD Biosciences, Bedford, Mass.) in phosphate-buffered saline. The collagen-containing plates were incubated at 37° C. for approximately 1 hour, after which the collagen was removed and the wells were washed twice with phosphate-buffered saline. Cells were seeded into 96-well plates (Falcon-Primaria #353872, BD Biosciences, Bedford, Mass.) at a density of approximately 8,000 cells/well for use in oligomeric compound transfection experiments.
When cells reached 65-75% confluency, they were treated with oligonucleotide. Oligonucleotide was mixed with LIPOFECTIN™ Invitrogen Life Technologies, Carlsbad, Calif.) in Opti-MEM™-1 reduced serum medium (Invitrogen Life Technologies, Carlsbad, Calif.) to achieve the desired concentration of oligonucleotide and a LIPOFECTIN™ concentration of 2.5 or 3 μg/mL per 100 nM oligonucleotide. This transfection mixture was incubated at room temperature for approximately 0.5 hours. For cells grown in 96-well plates, wells were washed once with 100 μL OPTI-MEM™-1 and then treated with 130 μL of the transfection mixture. Cells grown in 24-well plates or other standard tissue culture plates are treated similarly, using appropriate volumes of medium and oligonucleotide. Cells are treated and data are obtained in duplicate or triplicate. After approximately 4-7 hours of treatment at 37° C., the medium containing the transfection mixture was replaced with fresh culture medium. Cells were harvested 16-24 hours after oligonucleotide treatment.
Quantitation of glucose 6-phosphatase translocase mRNA levels was accomplished by real-time quantitative PCR using the ABI PRISM™ 7600, 7700, or 7900 Sequence Detection System (PE-Applied Biosystems, Foster City, Calif.) according to manufacturer's instructions.
Prior to quantitative PCR analysis, primer-probe sets specific to the target gene being measured were evaluated for their ability to be “multiplexed” with a GAPDH amplification reaction. After isolation the RNA is subjected to sequential reverse transcriptase (RT) reaction and real-time PCR, both of which are performed in the same well. RT and PCR reagents were obtained from Invitrogen Life Technologies (Carlsbad, Calif.). […] The RT reaction was carried out by incubation for 30 minutes at 48° C. Following a 10 minute incubation at 95° C. to activate the PLATINUM® Taq, 40 cycles of a two-step PCR protocol were carried out: 95° C. for 15 seconds (denaturation) followed by 60° C. for 1.5 minutes (annealing/extension).
Gene target quantities obtained by RT, real-time PCR were normalized using either the expression level of GAPDH, a gene whose expression is constant, or by quantifying total RNA using RiboGreen™ (Molecular Probes, Inc. Eugene, Oreg.). GAPDH expression was quantified by RT, real-time PCR, by being run simultaneously with the target, multiplexing, or separately. Total RNA was quantified using RiboGreen™ RNA quantification reagent (Molecular Probes, Inc. Eugene, Oreg.).
A series of oligomeric compounds was designed to target different regions of human glucose-6-phosphatase translocase, using published sequences cited in Table 1. All compounds in Table 4 are chimeric oligonucleotides (“gapmers”) 20 nucleotides in length, composed of a central “gap” region consisting of 10 2′-deoxynucleotides, which is flanked on both sides (5′ and 3′) by five-nucleotide “wings”. The wings are composed of 2′-O-(2-methoxyethyl) nucleotides, also known as 2′-MOE nucleotides. […]

First: ACAACCACACACAGTGCCCC (eA*e[5mC]*eA*eA*e[5mC]*d[5mC]*dA*d[5mC]*dA*d[5mC]*dA*d[5mC]*dA*dG*dT*eG*e[5mC]*e[5mC]*e[5mC]*e[5mC]; antisense) [ISIS 359519]
Second: ACAGCTCCCAATACCAGGAT (eA*e[5mC]*eA*eG*e[5mC]*dT*d[5mC]*d[5mC]*d[5mC]*dA*dA*dT*dA*d[5mC]*d[5mC]*eA*eG*eG*eA*eT; antisense) [ISIS 359537]
The “% Inhib” value of the first is lower: 53% for the first, 93% for the second.

Going from “ACATCAGCAGGTTCATTGTG (eA*e[5mC]*eA*eT*e[5mC]*dA*dG*d[5mC]*dA*dG*dG*dT*dT*d[5mC]*dA*eT*eT*eG*eT*eG; antisense) [ISIS 359523]” to “ACCAAGTGCCAAACTGAGAT (eA*e[5mC]*e[5mC]*eA*eA*dG*dT*dG*d[5mC]*d[5mC]*dA*dA*dA*d[5mC]*dT*eG*eA*eG*eA*eT; antisense) [ISIS 359509]”, the “% Inhib” value falls from 43% to 24%.

First: ACTCGGCCCATCTTGGTGCG (eA*e[5mC]*eT*e[5mC]*eG*dG*d[5mC]*d[5mC]*d[5mC]*dA*dT*d[5mC]*dT*dT*dG*eG*eT*eG*e[5mC]*eG; antisense) [ISIS 359548]
Second: AGAGGAAGGAGACAACCACA (eA*eG*eA*eG*eG*dA*dA*dG*dG*dA*dG*dA*d[5mC]*dA*dA*e[5mC]*e[5mC]*eA*e[5mC]*eA; antisense) [ISIS 359521]
The “% Inhib” value of the first is higher: 96% for the first, 32% for the second.

Going from “AGCAGGTTCATTGTGGATGA (eA*eG*e[5mC]*eA*eG*dG*dT*dT*d[5mC]*dA*dT*dT*dG*dT*dG*eG*eA*eT*eG*eA; antisense) [ISIS 359522]” to “AGCCAGGTTCATGCTGGTTG (eA*eG*e[5mC]*e[5mC]*eA*dG*dG*dT*dT*d[5mC]*dA*dT*dG*d[5mC]*dT*eG*eG*eT*eT*eG; antisense) [ISIS 359513]”, the “% Inhib” value falls from 91% to 62%.

First: ATGGCCCACCAAGTGCCAAA (eA*eT*eG*eG*e[5mC]*d[5mC]*d[5mC]*dA*d[5mC]*d[5mC]*dA*dA*dG*dT*dG*e[5mC]*e[5mC]*eA*eA*eA; antisense) [ISIS 359510]
Second: CAAATACAGCTCCCAATACC (e[5mC]*eA*eA*eA*eT*dA*d[5mC]*dA*dG*d[5mC]*dT*d[5mC]*d[5mC]*d[5mC]*dA*eA*eT*eA*e[5mC]*e[5mC]; antisense) [ISIS 359538]
The “% Inhib” value of the first is higher: 38% for the first, 29% for the second.

First: CAAGGAGCCCTTCTTGCCCT (e[5mC]*eA*eA*eG*eG*dA*dG*d[5mC]*d[5mC]*d[5mC]*dT*dT*d[5mC]*dT*dT*eG*e[5mC]*e[5mC]*e[5mC]*eT; antisense) [ISIS 359524]
Second: CAGGCCAACCAGGAGCAGCC (e[5mC]*eA*eG*eG*e[5mC]*d[5mC]*dA*dA*d[5mC]*d[5mC]*dA*dG*dG*dA*dG*e[5mC]*eA*eG*e[5mC]*e[5mC]; antisense) [ISIS 359508]
The “% Inhib” value of the first is lower: 56% for the first, 68% for the second.

First: CATGCTGGTTGACAGGATGG (e[5mC]*eA*eT*eG*e[5mC]*dT*dG*dG*dT*dT*dG*dA*d[5mC]*dA*dG*eG*eA*eT*eG*eG; antisense) [ISIS 359512]
Second: CCAACCAGGAGCAGCCCAGA (e[5mC]*e[5mC]*eA*eA*e[5mC]*d[5mC]*dA*dG*dG*dA*dG*d[5mC]*dA*dG*d[5mC]*e[5mC]*e[5mC]*eA*eG*eA; antisense) [ISIS 359507]
The “% Inhib” value of the first is lower: 43% for the first, 49% for the second.

First: CCAGCCCTCCAGCCAGGTTC (e[5mC]*e[5mC]*eA*eG*e[5mC]*d[5mC]*d[5mC]*dT*d[5mC]*d[5mC]*dA*dG*d[5mC]*d[5mC]*dA*eG*eG*eT*eT*e[5mC]; antisense) [ISIS 359516]
Second: CCAGCGTGCTGCGCCAGCTG (e[5mC]*e[5mC]*eA*eG*e[5mC]*dG*dT*dG*d[5mC]*dT*dG*d[5mC]*dG*d[5mC]*d[5mC]*eA*eG*e[5mC]*eT*eG; antisense) [ISIS 359518]
The “% Inhib” value of the first is higher: 69% for the first, 47% for the second.

Going from “CCAGGAGCAGCCCAGAAGAG (e[5mC]*e[5mC]*eA*eG*eG*dA*dG*d[5mC]*dA*dG*d[5mC]*d[5mC]*d[5mC]*dA*dG*eA*eA*eG*eA*eG; antisense) [ISIS 359506]” to “CCATACGAGGAGAAACCAAA (e[5mC]*e[5mC]*eA*eT*eA*d[5mC]*dG*dA*dG*dG*dA*dG*dA*dA*dA*e[5mC]*e[5mC]*eA*eA*eA; antisense) [ISIS 359542]”, the “% Inhib” value falls from 58% to 46%.

First: CCATCTTGGTGCGGATGTTT (e[5mC]*e[5mC]*eA*eT*e[5mC]*dT*dT*dG*dG*dT*dG*d[5mC]*dG*dG*dA*eT*eG*eT*eT*eT; antisense) [ISIS 359547]
Second: CCCTCCAGCCAGGTTCATGC (e[5mC]*e[5mC]*e[5mC]*eT*e[5mC]*d[5mC]*dA*dG*d[5mC]*d[5mC]*dA*dG*dG*dT*dT*e[5mC]*eA*eT*eG*e[5mC]; antisense) [ISIS 359515]
The “% Inhib” value of the first is higher: 91% for the first, 62% for the second.

Going from “CGAGGAGAAACCAAATACAG (e[5mC]*eG*eA*eG*eG*dA*dG*dA*dA*dA*d[5mC]*d[5mC]*dA*dA*dA*eT*eA*e[5mC]*eA*eG; antisense) [ISIS 359541]” to “CTGGTCACTGTTACCCGGAA (e[5mC]*eT*eG*eG*eT*d[5mC]*dA*d[5mC]*dT*dG*dT*dT*dA*d[5mC]*d[5mC]*e[5mC]*eG*eG*eA*eA; antisense) [ISIS 359533]”, the “% Inhib” value rises from 41% to 69%.

Going from “CTGGTTGACAGGATGGCCCA (e[5mC]*eT*eG*eG*eT*dT*dG*dA*d[5mC]*dA*dG*dG*dA*dT*dG*eG*e[5mC]*e[5mC]*e[5mC]*eA; antisense) [ISIS 359511]” to “GAAACCAAATACAGCTCCCA (eG*eA*eA*eA*e[5mC]*d[5mC]*dA*dA*dA*dT*dA*d[5mC]*dA*dG*d[5mC]*eT*e[5mC]*e[5mC]*e[5mC]*eA; antisense) [ISIS 359539]”, the “% Inhib” value falls from 55% to 38%.

First: GAACTGGCCCCAGTCAGTAC (eG*eA*eA*e[5mC]*eT*dG*dG*d[5mC]*d[5mC]*d[5mC]*d[5mC]*dA*dG*dT*d[5mC]*eA*eG*eT*eA*e[5mC]; antisense) [ISIS 359528]
Second: GAAGGAGACAACCACACACA (eG*eA*eA*eG*eG*dA*dG*dA*d[5mC]*dA*dA*d[5mC]*d[5mC]*dA*d[5mC]*eA*e[5mC]*eA*e[5mC]*eA; antisense) [ISIS 359520]
The “% Inhib” value of the first is higher: 45% for the first, 42% for the second.

Going from “GAGAAACCAAATACAGCTCC (eG*eA*eG*eA*eA*dA*d[5mC]*d[5mC]*dA*dA*dA*dT*dA*d[5mC]*dA*eG*e[5mC]*eT*e[5mC]*e[5mC]; antisense) [ISIS 359540]” to “GCCACCCAGAAGGCTGTGCT (eG*e[5mC]*e[5mC]*eA*e[5mC]*d[5mC]*d[5mC]*dA*dG*dA*dA*dG*dG*d[5mC]*dT*eG*eT*eG*e[5mC]*eT; antisense) [ISIS 359545]”, the “% Inhib” value falls from 92% to 65%.

Going from “GTCACTGGTCACTGTTACCC (eG*eT*e[5mC]*eA*e[5mC]*dT*dG*dG*dT*d[5mC]*dA*d[5mC]*dT*dG*dT*eT*eA*e[5mC]*e[5mC]*e[5mC]; antisense) [ISIS 359534]” to “GTGCTCTCCTCCTTCAAGGA (eG*eT*eG*e[5mC]*eT*d[5mC]*dT*d[5mC]*d[5mC]*dT*d[5mC]*d[5mC]*dT*dT*d[5mC]*eA*eA*eG*eG*eA; antisense) [ISIS 359527]”, the “% Inhib” value falls from 75% to 45%.

For “GTGCTGCGCCAGCTGTAGCT (eG*eT*eG*e[5mC]*eT*dG*d[5mC]*dG*d[5mC]*d[5mC]*dA*dG*d[5mC]*dT*dG*eT*eA*eG*e[5mC]*eT; antisense) [ISIS 359517]”, the “% Inhib” value was 25%.

Test system: mouse glucose-6-phosphatase translocase mRNA
Assay: Antisense inhibition of mouse glucose-6-phosphatase translocase mRNA in primary mouse hepatocytes, 50 nM (Table 5)
Assay type: cell-based
Conditions: 50 nM oligonucleotide, mRNA by real-time PCR, normalized with RIBOGREEN

With “TGTGCTCCAGCTATAGTGCT (eT*eG*eT*eG*e[5mC]*dT*d[5mC]*d[5mC]*dA*dG*d[5mC]*dT*dA*dT*dA*eG*eT*eG*e[5mC]*eT; antisense) [ISIS 148981]” the “% Inhib” value was 59%.
